Measured values from article PMC8465676, “A Novel Competitive Binding Screening Assay Reveals Sennoside B as a Potent Natural Product Inhibitor of TNF-α” (Biomedicines, 2021).

Molecular target: T1, TNF-α (Homo sapiens, UniProt P01375)
T1 construct: human recombinant TNF-α (PeproTech), intact homotrimer
Assay: competitive binding by SEC/ultrafiltration with LC-MS; SPD304 displaced and bound sennoside B detected
Settings: read-out: % inhibition of SPD304 signal (at 3.5 μM)

T1 sequence (P01375 77-233): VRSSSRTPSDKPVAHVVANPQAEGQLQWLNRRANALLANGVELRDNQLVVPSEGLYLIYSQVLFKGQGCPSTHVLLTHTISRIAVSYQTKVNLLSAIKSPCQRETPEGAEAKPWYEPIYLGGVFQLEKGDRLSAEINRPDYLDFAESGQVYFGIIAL

- inhibition at 3.5 µM: 89.4%
SMILES: O=C(O)c1cc(O)c2c(c1)[C@@H]([C@H]1c3cc(C(=O)O)cc(O)c3C(=O)c3c(O[C@@H]4O[C@H](CO)[C@@H](O)[C@H](O)[C@H]4O)cccc31)c1cccc(O[C@@H]3O[C@H](CO)[C@@H](O)[C@H](O)[C@H]3O)c1C2=O [compound 23, sennoside B]
